Reference: the kinase profiling compilation of Christmann-Franck et al. (2016)

Key:
Test in all cases: radiometric filter-binding kinase assay, Kinase HotSpot
Settings in all cases: compound 0.5 µM; ATP 10 µM
MERTK (human) = MERTK (human) (UniProt Q12866)
MAPKAPK2 (human) = MAPKAPK2 (human) (UniProt P49137)
PAK6 (human) = PAK6 (human) (UniProt Q9NQU5)
MAPK14 (human) = MAPK14 (human) (UniProt Q16539)
MAP3K5 (human) = MAP3K5 (human) (UniProt Q99683)
CLK2 (human) = CLK2 (human) (UniProt P49760)
NUAK1 (human) = NUAK1 (human) (UniProt O60285)
AURKB (human) = AURKB (human) (UniProt Q96GD4)
PASK (human) = PASK (human) (UniProt Q96RG2)
CDC42BPB (human) = CDC42BPB (human) (UniProt Q9Y5S2)
RPS6KA2 KD1 KD2 (human) = RPS6KA2 KD1 KD2 (human) (UniProt Q15349)
CSNK1G1 (human) = CSNK1G1 (human) (UniProt Q9HCP0)
PIM1 (human) = PIM1 (human) (UniProt P11309)
PRKCB2 (human) = PRKCB2 (human) (UniProt P05771)
FGFR2 (human) = FGFR2 (human) (UniProt P21802)
LCK (human) = LCK (human) (UniProt P06239)
CHUK (human) = CHUK (human) (UniProt O15111)
DAPK1 (human) = DAPK1 (human) (UniProt P53355)
PRKCD (human) = PRKCD (human) (UniProt Q05655)
RPS6KB2 (human) = RPS6KB2 (human) (UniProt Q9UBS0)
EGFR (human) = EGFR (human) (UniProt P00533)
GSK3B (human) = GSK3B (human) (UniProt P49841)
CDK5 CDK5R1 p35 (human) = CDK5 CDK5R1 p35 (human) (UniProt Q00535+Q15078)
PTK6 (human) = PTK6 (human) (UniProt Q13882)
MAP3K3 (human) = MAP3K3 (human) (UniProt Q99759)
NEK4 (human) = NEK4 (human) (UniProt P51957)
KIT (human) = KIT (human) (UniProt P10721)
ERBB4 (human) = ERBB4 (human) (UniProt Q15303)
FGFR3 (human) = FGFR3 (human) (UniProt P22607)
ACVR1 (human) = ACVR1 (human) (UniProt Q04771)
DDR2 (human) = DDR2 (human) (UniProt Q16832)
TEK (human) = TEK (human) (UniProt Q02763)
PRKD3 (human) = PRKD3 (human) (UniProt O94806)
FER (human) = FER (human) (UniProt P16591)
SRPK1 (human) = SRPK1 (human) (UniProt Q96SB4)
Chain of SRPK1 (human) (Q96SB4 whole entry, looked up): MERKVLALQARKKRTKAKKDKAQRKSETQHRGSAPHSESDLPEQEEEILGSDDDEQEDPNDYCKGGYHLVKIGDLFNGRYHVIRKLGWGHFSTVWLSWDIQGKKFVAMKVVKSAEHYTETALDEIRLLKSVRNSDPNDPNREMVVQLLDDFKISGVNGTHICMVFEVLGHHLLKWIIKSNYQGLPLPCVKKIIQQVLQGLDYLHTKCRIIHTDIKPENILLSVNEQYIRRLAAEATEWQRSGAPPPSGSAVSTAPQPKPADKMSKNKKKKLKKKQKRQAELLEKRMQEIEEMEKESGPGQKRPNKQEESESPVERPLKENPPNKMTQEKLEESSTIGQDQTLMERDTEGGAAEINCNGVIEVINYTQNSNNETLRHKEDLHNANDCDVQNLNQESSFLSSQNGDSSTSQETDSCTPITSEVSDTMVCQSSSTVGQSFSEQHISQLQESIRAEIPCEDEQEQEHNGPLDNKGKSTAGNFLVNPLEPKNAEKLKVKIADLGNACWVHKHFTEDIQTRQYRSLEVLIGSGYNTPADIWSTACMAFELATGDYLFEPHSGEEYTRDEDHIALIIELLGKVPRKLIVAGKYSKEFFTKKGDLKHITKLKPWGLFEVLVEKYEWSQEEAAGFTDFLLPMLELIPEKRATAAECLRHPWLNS

Chain of FGFR3 (human) (P22607 whole entry, looked up): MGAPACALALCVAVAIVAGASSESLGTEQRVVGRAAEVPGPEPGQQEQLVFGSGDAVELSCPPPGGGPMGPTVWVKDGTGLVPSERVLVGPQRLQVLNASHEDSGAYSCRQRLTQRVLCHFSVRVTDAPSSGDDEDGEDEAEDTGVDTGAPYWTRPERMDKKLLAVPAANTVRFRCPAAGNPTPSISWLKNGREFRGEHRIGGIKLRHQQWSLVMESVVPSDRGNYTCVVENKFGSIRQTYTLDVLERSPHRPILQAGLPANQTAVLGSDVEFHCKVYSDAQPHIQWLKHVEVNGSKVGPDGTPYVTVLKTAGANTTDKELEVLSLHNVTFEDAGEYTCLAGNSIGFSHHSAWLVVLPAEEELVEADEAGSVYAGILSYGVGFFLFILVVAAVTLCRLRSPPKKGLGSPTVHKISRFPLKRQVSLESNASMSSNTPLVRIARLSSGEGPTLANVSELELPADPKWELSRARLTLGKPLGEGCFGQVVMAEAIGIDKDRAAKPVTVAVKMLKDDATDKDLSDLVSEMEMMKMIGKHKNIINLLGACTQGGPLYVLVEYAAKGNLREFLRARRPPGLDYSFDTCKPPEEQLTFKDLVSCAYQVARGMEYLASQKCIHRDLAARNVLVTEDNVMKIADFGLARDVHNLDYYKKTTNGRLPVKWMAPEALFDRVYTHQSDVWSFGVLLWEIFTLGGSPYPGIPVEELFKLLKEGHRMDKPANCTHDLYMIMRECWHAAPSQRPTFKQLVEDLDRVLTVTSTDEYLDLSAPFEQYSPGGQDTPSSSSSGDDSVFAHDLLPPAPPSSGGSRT
Chain of MAP3K5 (human) (Q99683 whole entry, looked up): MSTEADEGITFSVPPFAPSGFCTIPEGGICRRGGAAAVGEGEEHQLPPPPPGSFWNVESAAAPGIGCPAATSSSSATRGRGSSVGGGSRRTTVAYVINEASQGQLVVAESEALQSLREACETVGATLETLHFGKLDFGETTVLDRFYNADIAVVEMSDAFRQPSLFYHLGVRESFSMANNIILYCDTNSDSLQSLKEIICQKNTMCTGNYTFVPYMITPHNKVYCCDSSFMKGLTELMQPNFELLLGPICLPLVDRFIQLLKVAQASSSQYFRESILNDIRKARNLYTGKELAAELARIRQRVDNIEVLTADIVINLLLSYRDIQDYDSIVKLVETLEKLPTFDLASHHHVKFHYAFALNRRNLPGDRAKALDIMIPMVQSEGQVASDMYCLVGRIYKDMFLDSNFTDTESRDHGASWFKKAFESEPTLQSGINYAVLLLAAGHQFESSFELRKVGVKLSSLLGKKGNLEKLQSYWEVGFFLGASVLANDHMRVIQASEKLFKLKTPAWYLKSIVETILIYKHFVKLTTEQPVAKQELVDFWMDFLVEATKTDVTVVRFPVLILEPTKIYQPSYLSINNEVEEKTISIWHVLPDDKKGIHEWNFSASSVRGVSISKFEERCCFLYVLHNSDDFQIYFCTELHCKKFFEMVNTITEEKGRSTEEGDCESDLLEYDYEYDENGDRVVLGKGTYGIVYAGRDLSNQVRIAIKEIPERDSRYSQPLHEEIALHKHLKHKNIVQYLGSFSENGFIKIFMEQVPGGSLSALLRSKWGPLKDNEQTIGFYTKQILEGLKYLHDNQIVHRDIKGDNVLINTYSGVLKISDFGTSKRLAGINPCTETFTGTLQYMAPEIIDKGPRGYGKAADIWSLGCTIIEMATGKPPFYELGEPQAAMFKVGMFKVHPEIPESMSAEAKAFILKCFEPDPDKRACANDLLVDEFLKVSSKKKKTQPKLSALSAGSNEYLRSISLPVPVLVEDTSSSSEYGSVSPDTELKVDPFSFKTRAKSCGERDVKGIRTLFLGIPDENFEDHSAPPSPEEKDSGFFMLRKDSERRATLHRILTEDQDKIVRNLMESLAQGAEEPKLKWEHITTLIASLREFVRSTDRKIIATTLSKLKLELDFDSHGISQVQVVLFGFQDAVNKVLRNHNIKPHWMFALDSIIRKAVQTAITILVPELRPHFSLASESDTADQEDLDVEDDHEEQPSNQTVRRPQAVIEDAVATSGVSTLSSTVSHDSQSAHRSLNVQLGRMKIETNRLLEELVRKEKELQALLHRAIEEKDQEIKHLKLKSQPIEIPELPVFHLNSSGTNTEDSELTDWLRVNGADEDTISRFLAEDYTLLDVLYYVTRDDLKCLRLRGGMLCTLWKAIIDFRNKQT
Chain of PRKD3 (human) (O94806 whole entry, looked up): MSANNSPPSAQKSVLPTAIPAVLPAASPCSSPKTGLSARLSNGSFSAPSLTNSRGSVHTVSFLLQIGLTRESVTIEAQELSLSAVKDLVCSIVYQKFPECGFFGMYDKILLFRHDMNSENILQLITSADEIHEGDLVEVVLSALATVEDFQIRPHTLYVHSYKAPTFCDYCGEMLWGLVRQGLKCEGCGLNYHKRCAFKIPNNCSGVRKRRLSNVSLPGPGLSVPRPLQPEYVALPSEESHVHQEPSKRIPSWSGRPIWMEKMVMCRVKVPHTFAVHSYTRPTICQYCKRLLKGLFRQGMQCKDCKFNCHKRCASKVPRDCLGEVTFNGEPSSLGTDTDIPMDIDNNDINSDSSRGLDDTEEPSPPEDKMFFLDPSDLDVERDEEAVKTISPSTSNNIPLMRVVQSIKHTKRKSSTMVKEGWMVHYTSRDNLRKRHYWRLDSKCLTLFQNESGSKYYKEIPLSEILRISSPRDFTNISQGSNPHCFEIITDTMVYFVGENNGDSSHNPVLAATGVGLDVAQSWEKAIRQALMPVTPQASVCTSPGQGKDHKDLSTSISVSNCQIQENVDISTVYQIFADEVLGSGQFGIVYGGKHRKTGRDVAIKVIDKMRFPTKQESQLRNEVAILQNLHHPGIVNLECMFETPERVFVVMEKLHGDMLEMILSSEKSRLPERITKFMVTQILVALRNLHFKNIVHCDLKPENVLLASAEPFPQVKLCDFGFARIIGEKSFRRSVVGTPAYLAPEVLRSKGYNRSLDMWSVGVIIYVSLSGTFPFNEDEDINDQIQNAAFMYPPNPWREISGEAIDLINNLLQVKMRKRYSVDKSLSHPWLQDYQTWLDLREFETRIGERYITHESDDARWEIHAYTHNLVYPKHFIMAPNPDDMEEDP
Chain of FGFR2 (human) (P21802 whole entry, looked up): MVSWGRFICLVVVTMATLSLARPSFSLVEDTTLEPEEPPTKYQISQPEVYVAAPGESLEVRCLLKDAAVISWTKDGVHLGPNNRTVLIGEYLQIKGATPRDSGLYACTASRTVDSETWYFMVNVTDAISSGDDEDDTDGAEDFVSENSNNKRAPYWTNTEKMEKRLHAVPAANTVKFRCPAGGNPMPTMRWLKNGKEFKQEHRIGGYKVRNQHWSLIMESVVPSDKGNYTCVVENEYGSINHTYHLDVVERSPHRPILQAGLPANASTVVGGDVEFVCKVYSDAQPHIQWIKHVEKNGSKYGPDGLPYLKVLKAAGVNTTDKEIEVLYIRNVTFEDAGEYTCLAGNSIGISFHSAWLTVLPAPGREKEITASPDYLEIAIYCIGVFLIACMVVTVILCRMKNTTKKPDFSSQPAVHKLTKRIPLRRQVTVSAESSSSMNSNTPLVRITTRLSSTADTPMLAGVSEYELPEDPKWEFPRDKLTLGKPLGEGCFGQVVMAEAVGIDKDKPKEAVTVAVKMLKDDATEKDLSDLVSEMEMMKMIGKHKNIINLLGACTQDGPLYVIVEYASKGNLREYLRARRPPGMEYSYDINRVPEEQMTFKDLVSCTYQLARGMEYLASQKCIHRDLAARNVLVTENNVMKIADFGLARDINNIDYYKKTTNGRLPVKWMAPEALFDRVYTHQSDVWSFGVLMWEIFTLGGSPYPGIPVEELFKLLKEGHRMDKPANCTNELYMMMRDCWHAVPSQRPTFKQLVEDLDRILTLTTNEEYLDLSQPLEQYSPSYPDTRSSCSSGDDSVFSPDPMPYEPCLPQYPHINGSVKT
Chain of MAPK14 (human) (Q16539 whole entry, looked up): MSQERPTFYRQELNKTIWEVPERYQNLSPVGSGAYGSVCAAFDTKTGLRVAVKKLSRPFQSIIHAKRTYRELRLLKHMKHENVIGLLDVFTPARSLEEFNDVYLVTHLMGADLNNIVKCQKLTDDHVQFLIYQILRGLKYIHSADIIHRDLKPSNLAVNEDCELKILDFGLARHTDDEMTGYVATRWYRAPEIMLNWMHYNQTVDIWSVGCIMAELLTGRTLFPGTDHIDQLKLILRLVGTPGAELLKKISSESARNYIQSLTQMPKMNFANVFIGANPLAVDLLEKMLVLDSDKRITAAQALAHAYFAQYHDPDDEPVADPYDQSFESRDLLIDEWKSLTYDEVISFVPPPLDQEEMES

| SMILES | residual activity (MERTK (human)) | residual activity (MAPKAPK2 (human)) | residual activity (PAK6 (human)) | residual activity (MAPK14 (human)) | residual activity (MAP3K5 (human)) | residual activity (CLK2 (human)) | residual activity (NUAK1 (human)) | residual activity (AURKB (human)) | residual activity (PASK (human)) | residual activity (CDC42BPB (human)) | residual activity (RPS6KA2 KD1 KD2 (human)) | residual activity (CSNK1G1 (human)) | residual activity (PIM1 (human)) | residual activity (PRKCB2 (human)) | residual activity (FGFR2 (human)) | residual activity (LCK (human)) | residual activity (CHUK (human)) | residual activity (DAPK1 (human)) | residual activity (PRKCD (human)) | residual activity (RPS6KB2 (human)) | other results |
| --- | --- | --- | --- | --- | --- | --- | --- | --- | --- | --- | --- | --- | --- | --- | --- | --- | --- | --- | --- | --- | --- |
| N/C(=N\N=C/c1ccc(-c2cccc([N+](=O)[O-])c2)o1)N[N+](=O)[O-] | 92.3% | 96.3% | 99% | 90.2% | 92.5% | 88.3% | 96.4% | 99.1% | 88.4% | 95.4% | 94.5% | 96.4% | 92.9% | 100% | 104% | 98.6% | 88.1% | 97.8% | 94.2% | 102% | residual activity (EGFR (human)): 100%; residual activity (GSK3B (human)): 117%; residual activity (CDK5 CDK5R1 p35 (human)): 89.2%; residual activity (PTK6 (human)): 101%; residual activity (MAP3K3 (human)): 93.8%; residual activity (NEK4 (human)): 103%; residual activity (KIT (human)): 96.4%; residual activity (ERBB4 (human)): 103%; residual activity (FGFR3 (human)): 99.6%; residual activity (ACVR1 (human)): 98%; residual activity (DDR2 (human)): 101%; residual activity (TEK (human)): 99.6%; residual activity (PRKD3 (human)): 93.9%; residual activity (FER (human)): 94.7%; residual activity (SRPK1 (human)): 94.9% |
| O=c1c2ccccc2[nH]c(=S)n1CCN1CCC(=C(c2ccc(F)cc2)c2ccc(F)cc2)CC1 | 97% | 106% | 98.4% | 99% | 98.1% | 87.8% | 102% | 102% | 99% | 106% | 107% | 92.5% | 105% | 98.2% | 101% | 99.5% | 95% | 93.8% | 95.7% | 102% | residual activity (EGFR (human)): 101%; residual activity (GSK3B (human)): 112%; residual activity (CDK5 CDK5R1 p35 (human)): 101%; residual activity (PTK6 (human)): 100%; residual activity (MAP3K3 (human)): 102%; residual activity (NEK4 (human)): 99.1%; residual activity (KIT (human)): 103%; residual activity (ERBB4 (human)): 87.4%; residual activity (FGFR3 (human)): 99.3%; residual activity (ACVR1 (human)): 107%; residual activity (DDR2 (human)): 97.6%; residual activity (TEK (human)): 96.1%; residual activity (PRKD3 (human)): 101%; residual activity (FER (human)): 95.2%; residual activity (SRPK1 (human)): 97.8% |
| COc1cc2ncnc(Nc3ccc(O)c(Br)c3)c2cc1OC | 87.7% | 97.7% | 92.8% | 87.3% | 98.6% | 96.7% | 68.2% | 63.5% | 57.9% | 98% | 63.6% | 92.4% | 75.5% | 98.7% | 95.9% | 48.9% | 107% | 92% | 97.3% | 102% | residual activity (EGFR (human)): 2.22%; residual activity (GSK3B (human)): 92%; residual activity (CDK5 CDK5R1 p35 (human)): 99.6%; residual activity (PTK6 (human)): 20.1%; residual activity (MAP3K3 (human)): 82%; residual activity (NEK4 (human)): 93.1%; residual activity (KIT (human)): 97.3%; residual activity (ERBB4 (human)): 29.1%; residual activity (FGFR3 (human)): 98.8%; residual activity (ACVR1 (human)): 128%; residual activity (DDR2 (human)): 119%; residual activity (TEK (human)): 93.8%; residual activity (PRKD3 (human)): 72.8%; residual activity (FER (human)): 85.2%; residual activity (SRPK1 (human)): 91.8% |
| O=C1NC(=O)c2c1c1c3ccccc3[nH]c1c1[nH]c3cc(Br)ccc3c21 | 69.1% | 101% | 97.7% | 90.6% | 94.9% | 84.7% | 14.3% | 44.3% | 86.3% | 84.1% | 37.9% | 96.2% | 8.84% | 72.8% | 98.4% | 88.9% | 81.5% | 73.5% | 99.1% | 83.9% | residual activity (EGFR (human)): 100%; residual activity (GSK3B (human)): 63.7%; residual activity (CDK5 CDK5R1 p35 (human)): 44.1%; residual activity (PTK6 (human)): 92.7%; residual activity (MAP3K3 (human)): 105%; residual activity (NEK4 (human)): 89%; residual activity (KIT (human)): 128%; residual activity (ERBB4 (human)): 101%; residual activity (FGFR3 (human)): 86.2%; residual activity (ACVR1 (human)): 127%; residual activity (DDR2 (human)): 91.8%; residual activity (TEK (human)): 93.8%; residual activity (PRKD3 (human)): 49.5%; residual activity (FER (human)): 88.9%; residual activity (SRPK1 (human)): 86.4% |
